Assay results: ChEMBL document CHEMBL1141766, “Isoprenylated naphthoquinone dimers firmianones A, B, and C from Firmiana platanifolia” (2005)

Tested on: P388
Test: Cytotoxicity against mouse P388 cells
Type: functional
Conditions: read-out: ED50 (the source's name)

| SMILES | EC50 |
| --- | --- |
| CC1=C[C@@H]2c3c(c(O)c4ccccc4c3O[C@@H]3O[C@H](CO)[C@@H](O)[C@H](O)[C@H]3O)[C@@]3(O)c4ccccc4C(=O)[C@]2(/C=C/C(C)(C)O)[C@@]3(O)C1 [FIRMIANONE A] | 6.5 µM |
| CC1=C[C@@H]2c3c(c(O)c4ccccc4c3O[C@@H]3O[C@H](CO)[C@@H](O)[C@H](O)[C@H]3O)[C@@]3(O)c4cccc(O)c4C(=O)[C@]2(/C=C/C(C)(C)O)[C@@]3(O)C1 [FIRMIANONE B] | 8.1 µM |
